Experimental data published in patent publication US12502371B2, “Drug for treating and preventing dementia” (Numan Labo LLC, priority 2019, dated 2025).

System: mice
Experiment: Y-maze test in mice given scopolamine
Format: in vivo, mouse
Conditions: based on total motor activity and correct alternation rate, scopolamine-treated mice
Description: The Y-maze test was performed in mice divided into three types A, B, and C. The mice were placed in a Y-maze and allowed to move freely for 6 minutes. The sequence of entries into each arm and the total number of arm entries were measured since mice have the habit of always choosing a new arm of the maze. In order to evaluate the degree of memory impairment, the correct alternation rate was calculated based on the percentage of correct arm entries out of the total number of arm entries. Mice of types A, B, and C received drugs as shown below. […] The total number of entries and percentage of correct alternations were analyzed based on data obtained from the Y-maze test. Four mice from each type were examined. The following animals were used in the experiments. • Species: mouse • Strain: Crj:ICR • Sex: male • Age in weeks: 4

Structure (SMILES): COc1ccccc1OCC(O)COC(N)=O (stereo not shown) [Methocarbamol, methocarbamol]
- Effect on cognitive function (in words): had the effect of improving cognitive function
